According to the NIST ThermoML archive (doi:10.1021/je400250u):

Assay: xn = mol fraction of the nth substance listed
Conditions: 100 kPa, Liquid; for viscosity: Capillary tube (Ostwald / Ubbelohde) method; for mass density: Vibrating tube method

C1CC[C@H]2CCCC[C@@H]2C1 [trans-decahydronaphthalene] + CCCCCCCCCCC
Conditions	mass density, 293.15 K [kg/m3]	mass density, 298.15 K [kg/m3]	mass density, 303.15 K [kg/m3]	mass density, 308.15 K [kg/m3]	viscosity, 293.15 K [mPa·s]	viscosity, 298.15 K [mPa·s]	viscosity, 303.15 K [mPa·s]	viscosity, 308.15 K [mPa·s]	viscosity, 313.15 K [mPa·s]
x1 = 0.1041	751.02	747.37	743.67	739.97	1.214	1.12	1.037	0.965	0.9
x1 = 0.2052	761.89	758.22	754.53	750.83	1.258	1.159	1.073	0.996	0.929
x1 = 0.3027	772.86	769.19	765.5	761.8	1.315	1.212	1.121	1.041	0.972
x1 = 0.3999	784.34	780.66	776.97	773.28	1.369	1.26	1.165	1.081	1.006
x1 = 0.4997	796.76	793.09	789.4	785.7	1.444	1.326	1.222	1.136	1.058
x1 = 0.5991	809.74	806.06	802.37	798.67	1.529	1.406	1.296	1.201	–
x1 = 0.6991	823.47	819.79	816.09	812.39	1.625	1.492	1.376	1.274	–
x1 = 0.8019	838.4	834.72	831.02	827.31	1.752	1.606	1.478	1.366	–
x1 = 0.8992	853.35	849.65	845.94	842.22	1.899	1.741	1.597	1.473	–
x1 = 1	869.78	866.07	862.34	858.61	2.112	1.925	1.769	1.628	–
